Assay results: patent US11254686B1 (Corvus Pharmaceuticals, Inc., priority 2017, dated 2022)

What was measured:
adenosine A2B receptor = adenosine A2B receptor (Homo sapiens (Human), UniProt P29275); assay: Adenosine receptor activity assay (Table 1), A2B activity; type: biochemical; conditions: for Ratio: A2A activity to A2B activity (A2A/A2B); for IC50: read-out: Ave A2B cAMP IC50
adenosine A2A receptor = adenosine A2A receptor (Homo sapiens (Human), UniProt P29274); assay: Adenosine receptor activity assay (Table 1), A2A activity; type: biochemical; conditions: read-out: Ave A2A cAMP IC50
Chain of adenosine A2A receptor (P29274 whole entry): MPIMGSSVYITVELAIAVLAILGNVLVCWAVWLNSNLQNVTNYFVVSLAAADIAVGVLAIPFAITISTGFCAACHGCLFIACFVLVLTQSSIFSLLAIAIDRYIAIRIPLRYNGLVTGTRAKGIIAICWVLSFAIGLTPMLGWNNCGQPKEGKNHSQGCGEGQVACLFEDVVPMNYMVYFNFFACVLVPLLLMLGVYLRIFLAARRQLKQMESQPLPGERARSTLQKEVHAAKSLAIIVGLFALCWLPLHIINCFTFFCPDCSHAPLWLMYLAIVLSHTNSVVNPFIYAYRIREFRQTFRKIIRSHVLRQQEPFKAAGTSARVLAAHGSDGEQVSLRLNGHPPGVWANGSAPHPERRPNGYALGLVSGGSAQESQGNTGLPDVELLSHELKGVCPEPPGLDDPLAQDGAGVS

adenosine A3 receptor [1] = target: T1, adenosine A3 receptor (Homo sapiens (Human), UniProt P0DMS8); assay: A3 cAMP IC50 assay (Table 1); type: biochemical
T1 sequence (P0DMS8 whole entry): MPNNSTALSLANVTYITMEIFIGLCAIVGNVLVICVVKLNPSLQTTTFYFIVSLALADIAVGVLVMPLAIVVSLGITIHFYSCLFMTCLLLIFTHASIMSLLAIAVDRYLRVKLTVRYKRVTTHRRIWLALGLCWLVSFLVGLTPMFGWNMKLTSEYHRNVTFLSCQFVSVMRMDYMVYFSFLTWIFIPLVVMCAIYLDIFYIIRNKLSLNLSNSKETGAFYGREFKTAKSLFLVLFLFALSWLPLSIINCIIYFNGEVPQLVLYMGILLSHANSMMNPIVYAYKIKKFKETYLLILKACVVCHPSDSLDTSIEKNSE

adenosine A1 receptor [2] = target: T2, adenosine A1 receptor (Homo sapiens (Human), UniProt P30542); assay: A1 cAMP IC50 assay (Table 1); type: biochemical
T2 sequence (P30542 whole entry): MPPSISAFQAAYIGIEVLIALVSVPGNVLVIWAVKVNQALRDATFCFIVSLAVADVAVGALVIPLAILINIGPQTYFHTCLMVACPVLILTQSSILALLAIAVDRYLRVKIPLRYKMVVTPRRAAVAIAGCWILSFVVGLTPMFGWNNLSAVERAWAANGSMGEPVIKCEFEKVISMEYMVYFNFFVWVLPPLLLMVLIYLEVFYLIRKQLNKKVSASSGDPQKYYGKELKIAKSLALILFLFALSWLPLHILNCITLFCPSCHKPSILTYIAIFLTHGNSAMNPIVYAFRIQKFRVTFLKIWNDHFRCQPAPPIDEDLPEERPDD

adenosine A1 receptor [3] = target: T2, adenosine A1 receptor; assay: Adenosine receptor activity assay (Table 1), A1 cAMP; type: cell-based
adenosine A3 receptor [4] = target: T1, adenosine A3 receptor; assay: Adenosine receptor activity assay (Table 1), A3 cAMP; type: cell-based

Chain of adenosine A2B receptor (P29275 whole entry): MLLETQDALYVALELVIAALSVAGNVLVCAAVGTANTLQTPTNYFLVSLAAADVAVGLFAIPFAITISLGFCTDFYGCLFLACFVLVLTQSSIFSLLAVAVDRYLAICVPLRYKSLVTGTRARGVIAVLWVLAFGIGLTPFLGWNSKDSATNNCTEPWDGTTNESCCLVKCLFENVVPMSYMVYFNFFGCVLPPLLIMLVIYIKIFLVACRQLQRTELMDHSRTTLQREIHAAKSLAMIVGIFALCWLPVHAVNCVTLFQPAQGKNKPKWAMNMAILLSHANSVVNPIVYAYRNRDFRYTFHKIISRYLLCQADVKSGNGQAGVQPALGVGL

| Molecule | Ratio (adenosine A2B receptor) | IC50 (adenosine A2B receptor) [nM] | IC50 (adenosine A2A receptor) [nM] | IC50 (adenosine A3 receptor [1]) [nM] | IC50 (adenosine A1 receptor [2]) [nM] | IC50 (adenosine A1 receptor [3]) [nM] | IC50 (adenosine A3 receptor [4]) [nM] |
| --- | --- | --- | --- | --- | --- | --- | --- |
| C[C@H](Nc1nc(C(=O)N2CCC(F)(F)C2)c2sccc2n1)c1cccnc1 [Example Z13, (S)-(3,3-Difluoropyrrolidin-1-yl)(2-((1-(pyridin-3-yl)ethyl)amino)thieno[3,2-d]pyrimidin-4-yl)methanone] | 3.93 | 10 to 50 | 100 to 500 | > 500 | > 500 |  |  |
| C[C@H](Nc1nc(C(=O)NCc2ccccc2)c2sccc2n1)c1cccnc1 [Example Z42, (S)—N-Benzyl-2-((1-(pyridin-3-yl)ethyl)amino)thieno[3,2-d]pyrimidine-4-carboxamide] | 0.20 | 100 to 500 | 10 to 50 | 50 to 100 | 100 to 500 |  |  |
| COc1cccc(CNC(=O)c2nc(N[C@@H](C)c3cccnc3)nc3ccsc23)n1 [Example Z73, (S)—N-((6-Methoxypyridin-2-yl)methyl)-2-((1-(pyridin-3-yl)ethyl)amino)thieno[3,2-d]pyrimidine-4-carboxamide] | 3.11 | 10 to 50 | 50 to 100 | 50 to 100 | > 500 |  |  |
| O=C(c1nc(NCc2cccc(F)c2)nc2ccsc12)N1CCCC1 [Example Z84, (2-((3-Fluorobenzyl)amino)thieno[3,2-d]pyrimidin-4-yl)(pyrrolidin-1-yl)methanone] | 18.10 | 10 to 50 | > 500 | > 500 | > 500 |  |  |
| C[C@H](Nc1nc(C(=O)NCc2ccccn2)c2sccc2n1)c1cccnc1 [Example Z89, (S)—N-(Pyridin-2-ylmethyl)-2-((1-(pyridin-3-yl)ethyl)amino)thieno[3,2-d]pyrimidine-4-carboxamide] | 0.89 | 10 to 50 | 10 to 50 | 50 to 100 | > 500 |  |  |
| O=C(c1nc(NCc2cncc(Cl)c2)nc2ccsc12)N1CCCC1 [Example Z93, (2-(((5-Chloropyridin-3-yl)methyl)amino)thieno[3,2-d]pyrimidin-4-yl)(pyrrolidin-1-yl)methanone] | 57.59 | 10 to 50 | > 500 | > 500 | > 500 |  |  |
| O=C(c1nc(NCc2ccccn2)nc2ccsc12)N1CCCC1 [Example Z95, (2-((Pyridin-2-ylmethyl)amino)thieno[3,2-d]pyrimidin-4-yl)(pyrrolidin-1-yl)methanone] | 8.80 | 10 to 50 | 100 to 500 | > 500 | > 500 |  |  |
| C[C@H](Nc1nc(C(=O)NCc2ccc(OCC3CC3)nc2)c2sccc2n1)c1ccccn1 [Example Z107, (S)—N-((6-(Cyclopropylmethoxy)pyridin-3-yl)methyl)-2-((1-(pyridin-2-yl)ethyl)amino)thieno[3,2-d]pyrimidine-4-carboxamide] | 0.84 | 50 to 100 | 50 to 100 | 100 to 500 | 100 to 500 |  |  |
| C[C@H](Nc1nc(C(=O)NC[C@@H](C)O)c2sc(C(F)(F)F)cc2n1)c1cccnc1 [Example Z348, N—((R)-2-Hydroxypropyl)-2-(((S)-1-(pyridin-3-yl)ethyl)amino)-6-(trifluoromethyl)thieno[3,2-d]pyrimidine-4-carboxamide] | 92.29 | 10 to 50 | > 500 |  |  | > 500 | 50 to 100 |
| Cc1cc2nc(N[C@@H](C)c3ccccn3)nc(C(=O)NC3CCC3)c2s1 [Example Z352, (S)—N-Cyclobutyl-6-methyl-2-((1-(pyridin-2-yl)ethyl)amino)thieno[3,2-d]pyrimidine-4-carboxamide] | 9.52 | < 10 | 10 to 50 |  |  | 50 to 100 | 50 to 100 |
| Cc1cc2nc(N[C@@H](C)c3ccccn3)nc(C(=O)NCCO)c2s1 [Example Z353, (S)—N-(2-Hydroxyethyl)-6-methyl-2-((1-(pyridin-2-yl)ethyl)amino)thieno[3,2-d]pyrimidine-4-carboxamide] | 53.12 | < 10 | 100 to 500 |  |  | 50 to 100 | 50 to 100 |
| Cc1cc2nc(N[C@@H](C)c3cccnc3)nc(C(=O)NCCO)c2s1 [Example Z368, (S)—N-(2-Hydroxyethyl)-6-methyl-2-((1-(pyridin-3-yl)ethyl)amino)thieno[3,2-d]pyrimidine-4-carboxamide] | 74.02 | < 10 | 100 to 500 |  |  | 50 to 100 | 50 to 100 |
| Cc1cc2nc(N[C@@H](C)c3cncc(F)c3)nc(C(=O)NCCc3ccc(O)cc3)c2s1 [Example Z373, (S)-2-((1-(5-Fluoropyridin-3-yl)ethyl)amino)-N-(4-hydroxyphenethyl)-6-methylthieno[3,2-d]pyrimidine-4-carboxamide] | 75.08 | < 10 | 100 to 500 |  |  | 50 to 100 | 10 to 50 |
| COc1cccc(CNC(=O)c2nc(N[C@@H](C)c3cncc(F)c3)nc3cc(C)sc23)n1 [Example Z374, (S)-2-((1-(5-Fluoropyridin-3-yl)ethyl)amino)-N-((6-methoxypyridin-2-yl)methyl)-6-methylthieno[3,2-d]pyrimidine-4-carboxamide] | 19.21 | < 10 | 100 to 500 |  |  | 50 to 100 | 10 to 50 |
| Cc1cc2nc(N[C@@H](C)c3cncc(F)c3)nc(C(=O)NCC3CCOCC3)c2s1 [Example Z376, (S)-2-((1-(5-Fluoropyridin-3-yl)ethyl)amino)-6-methyl-N-((tetrahydro-2H-pyran-4-yl)methyl)thieno[3,2-d]pyrimidine-4-carboxamide] | 32.01 | < 10 | 100 to 500 |  |  | 50 to 100 | 50 to 100 |
| C[C@H](Nc1nc(C(=O)NCCc2ccncc2)c2sccc2n1)c1cncc(F)c1 [Example Z382, (S)-2-((1-(5-Fluoropyridin-3-yl)ethyl)amino)-N-(2-(pyridin-4-yl)ethyl)thieno[3,2-d]pyrimidine-4-carboxamide] | 18.44 | 10 to 50 | > 500 |  |  | > 500 | > 500 |
| CC(=O)N[C@H]1CCN(C(=O)c2nc(N[C@@H](C)c3cncc(F)c3)nc3cc(C)sc23)C1 [Example Z383, N—((S)-1-(2-(((S)-1-(5-Fluoropyridin-3-yl)ethyl)amino)-6-methylthieno[3,2-d]pyrimidine-4-carbonyl)pyrrolidin-3-yl)acetamide] | 55.83 | 10 to 50 | > 500 |  |  | > 500 | 10 to 50 |
| C[C@H](Nc1nc(C(=O)NCCc2ccc(CO)cc2)c2sccc2n1)c1cncc(F)c1 [Example Z384, (S)-2-((1-(5-Fluoropyridin-3-yl)ethyl)amino)-N-(4-(hydroxymethyl)phenethyl)thieno[3,2-d]pyrimidine-4-carboxamide] | 13.78 | 10 to 50 | 100 to 500 |  |  | 50 to 100 | > 500 |
| C[C@H](Nc1nc(C(=O)NCCC2CCNC2)c2sccc2n1)c1cncc(F)c1 (stereo partly drawn) [Example Z386, 2-(((S)-1-(5-Fluoropyridin-3-yl)ethyl)amino)-N-(2-(pyrrolidin-3-yl)ethyl)thieno[3,2-d]pyrimidine-4-carboxamide] | 100.94 | 10 to 50 | > 500 |  |  | > 500 | > 500 |
| Cc1cc2nc(N[C@@H](C)c3cncc(F)c3)nc(C(=O)NC[C@@H]3CCOC3)c2s1 [Example Z389, 2-(((S)-1-(5-Fluoropyridin-3-yl)ethyl)amino)-6-methyl-N—(((S)-tetrahydrofuran-3-yl)methyl)thieno[3,2-d]pyrimidine-4-carboxamide] | 50.96 | < 10 | > 500 |  |  | 50 to 100 | 50 to 100 |
| Cc1cc2nc(N[C@@H](C)c3cncc(F)c3)nc(C(=O)NC[C@H]3CCOC3)c2s1 [Example Z390, 2-(((S)-1-(5-fluoropyridin-3-yl)ethyl)amino)-6-methyl-N—(((R)-tetrahydrofuran-3-yl)methyl)thieno[3,2-d]pyrimidine-4-carboxamide] | 68.99 | < 10 | 100 to 500 |  |  | 50 to 100 | 50 to 100 |
| C[C@H](O)CNC(=O)c1nc(N[C@@H](C)c2cncc(F)c2)nc2cc(C(F)(F)F)sc12 [Example Z392, 2-(((S)-1-(5-fluoropyridin-3-yl)ethyl)amino)-N—((S)-2-hydroxypropyl)-6-(trifluoromethyl)thieno[3,2-d]pyrimidine-4-carboxamide] | 248.84 | < 10 | > 500 |  |  | 50 to 100 | 50 to 100 |
| C[C@H](Nc1nc(C(=O)NC[C@@H](C)O)c2sc(C(F)(F)F)cc2n1)c1cncc(F)c1 [Example Z393, 2-(((S)-1-(5-Fluoropyridin-3-yl)ethyl)amino)-N—((R)-2-hydroxypropyl)-6-(trifluoromethyl)thieno[3,2-d]pyrimidine-4-carboxamide] | 399.70 | < 10 | > 500 |  |  | 50 to 100 | 50 to 100 |
| ((R)-3-Methoxypyrrolidin-1-yl)(2-(((S)-1-(pyridin-2-yl)ethyl)amino)thieno[3,2-d]pyrimidin-4-yl)methanone [Example Z247] | 2.54 | 10 to 50 | 50 to 100 |  |  | > 500 | > 500 |
